Assay type in all cases: binding
In one experiment the target is T1, FBW7^ARG+pCycE (Homo sapiens, UniProt Q969H0, R505L).
T1 construct: GST (TEV site and flexible linker) (N, cleaved yes); made in house; host or cells: SF9 insect cells (baculovirus)
The experiment can be described thus: FBW7^ARG-cyclin E agonist ALPHAscreen (primary PRUN, confirmation CRUN1, dose-response DRUN). To be noted: for EC50 / Emax: DRUN dose-response; for Emax: relative to WT-FBW7+pCycE, read-out: FBW7 ACT Averaged Max % Response. An outline of the steps: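 ALPHAscreen agonist assay: His-tagged FBW7 R505L on Ni-chelate acceptor beads (25 nM FBW7, 25 nM biotinylated phospho-cyclin E peptide, 10 µg/ml beads), streptavidin donor beads, ALPHA signal read. Primary and confirmation runs at 26.1 μM; dose-response as 10-point 3-fold series to ~87 μM, in triplicate; activation relative to WT-FBW7+pCycE.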

Another experiment concerns pCycE alone. Put plainly: Counterscreen 2 ALPHAscreen with cyclin E phosphopeptide alone (CSRUN2/DCSRUN2). The conditions noted are these: for CyCEP ACT DCSRUN2 Averaged Max % Response: activation relative to WT-FBW7+pCycE, averaged maximum; for EC50: dose-response, triplicate, 10 point 3-fold dilutional series, read-out: CyCEP ACT DCSRUN2 Final EC50. An outline of the steps:
(§1)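 ALPHAscreen counterscreens, read on ENVISION, omitting either FBW7^ARG or the phosphorylated cyclin E peptide to flag general ALPHAscreen agonists. Compounds tested in triplicate as 10-point 3-fold dilutions up to approximately 87 μM. Activation expressed relative to WT-FBW7+pCycE, with 10% set as positive.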
For orientation: Counterscreens check selectivity or assay interference.

The next experiment concerns the target T2, FBW7^ARG (RLFBW7) alone (Homo sapiens, UniProt Q969H0, R505L).
T2 construct: GST (TEV site and flexible linker) (N, cleaved yes); made in house; host or cells: SF9 insect cells (baculovirus)
The experiment can be described thus: Counterscreen 1 ALPHAscreen with FBW7^ARG alone (CSRUN1/DCSRUN1). The conditions noted are these: dose-response counterscreen; for Emax: read-out: RLFBW7 ACT DCSRUN1 Averaged Max % Response. An outline of the steps: as §1

Setting [1] is: raw curve fit, read-out: FBW7 ACT EC50 Curve Fit Raw, Molar.
[2] abbreviates: triplicate, 10 point 3-fold dilution, max approx. 87 μM, read-out: FBW7 ACT Final EC50, Molar.
Where [3] appears, read: confirmation assay, triplicate, single concentration 26.1 μM, read-out: FBW7 ACT CRUN1 Avg % Response and Stdev.
Setting [4] is: primary screen, 1536-well, 26.1 μM, FBW7^ARG + pCycE degron peptide, high control wt-FBW7+pCycE, read-out: FBW7 ACT PRUN % Response.
[5] abbreviates: read-out: RLFBW7 ACT DCSRUN1 Final EC50.
Setting [6] is: raw curve fit, read-out: RLFBW7 ACT DCSRUN1 EC50 Curve Fit Raw.

Experimental findings from patent US20210047278A1, “E3 UBIQUITIN LIGASE AGONISTS, PHARMACEUTICAL COMPOSITIONS INCLUDING THE E3 UBIQUITIN LIGASE AGONISTS, RELATED METHODS OF USE” (FRED HUTCHINSON CANCER RESEARCH CENTER, priority 2018, published 2021) are described below.

Like-named read-outs stand apart in the source and are kept apart here.

T2 sequence (Q969H0 64-707 R505L): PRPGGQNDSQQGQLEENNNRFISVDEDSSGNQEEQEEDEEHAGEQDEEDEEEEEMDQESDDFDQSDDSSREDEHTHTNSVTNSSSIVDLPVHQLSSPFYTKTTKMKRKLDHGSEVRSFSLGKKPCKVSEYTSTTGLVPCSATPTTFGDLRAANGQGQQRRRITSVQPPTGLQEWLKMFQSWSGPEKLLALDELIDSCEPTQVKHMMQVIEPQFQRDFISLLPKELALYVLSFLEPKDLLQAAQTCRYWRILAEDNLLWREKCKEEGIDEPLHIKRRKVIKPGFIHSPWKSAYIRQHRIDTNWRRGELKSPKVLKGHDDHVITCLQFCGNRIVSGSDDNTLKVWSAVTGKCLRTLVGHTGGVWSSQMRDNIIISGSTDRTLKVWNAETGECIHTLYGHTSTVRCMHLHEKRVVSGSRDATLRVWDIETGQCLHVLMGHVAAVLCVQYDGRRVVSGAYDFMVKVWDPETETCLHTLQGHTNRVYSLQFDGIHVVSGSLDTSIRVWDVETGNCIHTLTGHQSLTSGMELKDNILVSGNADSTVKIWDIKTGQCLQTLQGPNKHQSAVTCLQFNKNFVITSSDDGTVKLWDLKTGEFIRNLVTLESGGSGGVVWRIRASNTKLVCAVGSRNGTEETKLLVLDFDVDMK
T2 sequence (P63208 2-163 partner): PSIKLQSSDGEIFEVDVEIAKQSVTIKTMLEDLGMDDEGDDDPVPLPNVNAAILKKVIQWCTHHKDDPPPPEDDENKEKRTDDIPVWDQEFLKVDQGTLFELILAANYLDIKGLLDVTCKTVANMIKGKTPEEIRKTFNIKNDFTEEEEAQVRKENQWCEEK
T1 sequence (Q969H0 64-707 R505L): as the sequence (Q969H0 64-707 R505L) above
T1 sequence (P63208 2-163 partner): as the sequence (P63208 2-163 partner) above

For orientation: EC50 means the concentration giving half of the maximal effect. For `COc1ccc(OC)c(/C=C2/N=C(c3cccc([N+](=O)[O-])c3)OC2=O)c1` [SR-01000414795-1], the EC50 on FBW7^ARG+pCycE (setting [1]) is 0.0017 µM; on FBW7^ARG+pCycE (setting [2]), more than 59.3 µM; with pCycE alone, more than 59.3 µM; on FBW7^ARG (RLFBW7) alone (setting [5]), more than 59.3 µM. In addition, the Emax at FBW7^ARG+pCycE was 7.11%; on FBW7^ARG (RLFBW7) alone it was -0.422%. Further, the activation at 26.1 µM was 2.95 ± 3.6% at FBW7^ARG+pCycE (setting [3]) and 1.88% at FBW7^ARG+pCycE (setting [4]). Besides, the “CyCEP ACT DCSRUN2 Averaged Max % Response” value with pCycE alone was found to be 0.02%.
With `CC1=C(C(=O)OC(C)C)C(c2ccncc2)C2=C(CC(c3ccccc3)CC2=O)N1` (stereo not shown) [SR-01000217822-2], the EC50 at FBW7^ARG+pCycE (setting [1]) was 23 µM; on FBW7^ARG+pCycE (setting [2]), more than 60.9 µM; in the experiment with pCycE alone, more than 60.9 µM; on FBW7^ARG (RLFBW7) alone (setting [6]), 25.2 µM; on FBW7^ARG (RLFBW7) alone (setting [5]) it was more than 60.9 µM. The values for the Emax at FBW7^ARG+pCycE and at FBW7^ARG (RLFBW7) alone were 7.67% and 0.88%, respectively. The activation at 26.1 µM stood at 6.36 ± 0.25% at FBW7^ARG+pCycE (setting [3]) and 2.06% on FBW7^ARG+pCycE (setting [4]). The “CyCEP ACT DCSRUN2 Averaged Max % Response” value in the experiment with pCycE alone is recorded as 0.03%.
For `COc1ccc(C2CC(=O)C3=C(C2)NC(C)=C(C(=O)OC(C)C)C3c2ccccc2OC(C)C)cc1` (stereo not shown) [SR-01000422384-1], the EC50 at FBW7^ARG+pCycE (setting [1]) is 14.3 µM; at FBW7^ARG+pCycE (setting [2]), more than 42.9 µM; in the experiment on pCycE alone, more than 42.9 µM; on FBW7^ARG (RLFBW7) alone (setting [6]) it was 14.5 µM; on FBW7^ARG (RLFBW7) alone (setting [5]) it was more than 42.9 µM. The Emax was 9.7% on FBW7^ARG+pCycE and 1.86% at FBW7^ARG (RLFBW7) alone. The activation at 26.1 µM on FBW7^ARG+pCycE (setting [3]) stood at 6.29 ± 0.67%; on FBW7^ARG+pCycE (setting [4]) it was 2.42%. Moreover, the “CyCEP ACT DCSRUN2 Averaged Max % Response” value with pCycE alone was found to be 0.09%.
In the case of `COc1cccc(C=O)c1OC(=O)c1cccc(Cl)c1` [SR-01000242625-1], the EC50 was 26.7 µM at FBW7^ARG+pCycE (setting [1]); more than 65.3 µM at FBW7^ARG+pCycE (setting [2]); more than 65.3 µM in the experiment on pCycE alone; 0.0369 µM at FBW7^ARG (RLFBW7) alone (setting [6]); more than 65.3 µM on FBW7^ARG (RLFBW7) alone (setting [5]). Besides, the Emax on FBW7^ARG+pCycE is 33.6%; on FBW7^ARG (RLFBW7) alone, 1.05%. In addition, the activation at 26.1 µM came to 9.26 ± 0.67% on FBW7^ARG+pCycE (setting [3]) and 11.9% at FBW7^ARG+pCycE (setting [4]). In addition, the “CyCEP ACT DCSRUN2 Averaged Max % Response” value in the experiment on pCycE alone was determined as 0.61%.
For `CCOc1ccc(Br)cc1C1C2=C(CCCC2=O)N(CC(=O)O)C2=C1C(=O)CCC2` [SR-01000476712-1], the EC50 was 0.0054 µM at FBW7^ARG+pCycE (setting [1]); more than 43.6 µM on FBW7^ARG+pCycE (setting [2]); more than 43.6 µM in the experiment on pCycE alone; 0.0052 µM on FBW7^ARG (RLFBW7) alone (setting [6]); more than 43.6 µM on FBW7^ARG (RLFBW7) alone (setting [5]). The Emax on FBW7^ARG+pCycE is 8.52%; on FBW7^ARG (RLFBW7) alone it was 1.87%. In addition, the activation at 26.1 µM at FBW7^ARG+pCycE (setting [3]) amounted to 3.84 ± 1.06%; on FBW7^ARG+pCycE (setting [4]), 1.93%. In the experiment with pCycE alone, the “CyCEP ACT DCSRUN2 Averaged Max % Response” value was 2.30%.
Take `CCN1C(=O)c2cccc3c(N4CCCC4)ccc(c23)C1=O` [SR-01000221568-1]: the EC50 is 17.4 µM at FBW7^ARG+pCycE (setting [1]); more than 65.3 µM on FBW7^ARG+pCycE (setting [2]); more than 65.3 µM in the experiment on pCycE alone; 14.2 µM on FBW7^ARG (RLFBW7) alone (setting [6]); more than 65.3 µM at FBW7^ARG (RLFBW7) alone (setting [5]). Besides, the Emax on FBW7^ARG+pCycE stood at 16.3%; at FBW7^ARG (RLFBW7) alone it was 8.96%. The activation at 26.1 µM was found to be 3.1 ± 0.38% at FBW7^ARG+pCycE (setting [3]) and 2.07% on FBW7^ARG+pCycE (setting [4]). Also, the “CyCEP ACT DCSRUN2 Averaged Max % Response” value with pCycE alone is 0.35%.
As to `CC(C)[C@@H](CO)Nc1ccc2ncc(-c3cccc(Cl)c3)n2n1` [SR-01000383396-1], the EC50 at FBW7^ARG+pCycE (setting [1]) was 0.127 µM; on FBW7^ARG+pCycE (setting [2]), more than 65.3 µM; with pCycE alone, more than 65.3 µM; on FBW7^ARG (RLFBW7) alone (setting [5]), more than 65.3 µM. The Emax amounted to 6.14% at FBW7^ARG+pCycE and 0.49% at FBW7^ARG (RLFBW7) alone. The activation at 26.1 µM at FBW7^ARG+pCycE (setting [3]) amounted to 2.27 ± 0.17%; on FBW7^ARG+pCycE (setting [4]) it was 2.03%. Also, in the experiment on pCycE alone, the “CyCEP ACT DCSRUN2 Averaged Max % Response” value worked out at 0.27%.
Regarding `COc1ccc(COC(=O)C2=C(C)NC3=C(C(=O)CC(C)(C)C3)C2c2ccccc2)cc1` (stereo not shown) [SR-01000427708-1], the EC50 is 23.8 µM on FBW7^ARG+pCycE (setting [1]); more than 62.2 µM on FBW7^ARG+pCycE (setting [2]); more than 62.2 µM in the experiment with pCycE alone; 0.0056 µM at FBW7^ARG (RLFBW7) alone (setting [6]); more than 62.2 µM on FBW7^ARG (RLFBW7) alone (setting [5]). Moreover, the Emax was found to be 8.75% on FBW7^ARG+pCycE and 1.53% at FBW7^ARG (RLFBW7) alone. Besides, the values for the activation at 26.1 µM at FBW7^ARG+pCycE (setting [3]) and at FBW7^ARG+pCycE (setting [4]) were 5.27 ± 1.17% and 2.58%, respectively. Moreover, the “CyCEP ACT DCSRUN2 Averaged Max % Response” value in the experiment on pCycE alone amounted to 1.77%.
With `CC(=O)Nc1ccc(NC(=O)Cn2cnc3c(cnn3C(C)(C)C)c2=O)cc1` [SR-01000137195-1], the EC50 on FBW7^ARG+pCycE (setting [1]) was 13.4 µM; on FBW7^ARG+pCycE (setting [2]), more than 65.3 µM; in the experiment with pCycE alone it was more than 65.3 µM; at FBW7^ARG (RLFBW7) alone (setting [6]), 0.0182 µM; at FBW7^ARG (RLFBW7) alone (setting [5]) it was more than 65.3 µM. In addition, the Emax on FBW7^ARG+pCycE was found to be 15.2%; at FBW7^ARG (RLFBW7) alone, 0.23%. Also, the results for the activation at 26.1 µM at FBW7^ARG+pCycE (setting [3]) and on FBW7^ARG+pCycE (setting [4]) were 4.47 ± 0.6% and 4.02%, respectively. Further, the “CyCEP ACT DCSRUN2 Averaged Max % Response” value in the experiment with pCycE alone is given as 0.27%.
